# Source: US12378234B2, “Crystalline polymorphs of a 1-thiazol-2-yl-pyrazole-5-carboxylic acid derivative” (Bantam Pharmaceutical, LLC, priority 2019, dated 2025)
# How the values were obtained:
# Type in all cases: physicochemical
# [1] = Form stability on drying, checked by XRPD; conditions: for change to the polymorph during drying (XRPD): wet solids vacuum-dried at 50° C. for 2 hours; for form stability upon drying under ambient condition (XRPD): solids isolated from slurry
# Method: Crystalline polymorph Form 1 (20 mg) was suspended in 0.2-0.9 mL of methyl tert-butyl ether (MTBE). The resulting slurry was stirred at room temperature for 4 days, after which the remaining solids were isolated and subjected to XRPD.
# Crystalline polymorph Form 1 (20 mg) was suspended in 0.2-0.9 mL of tetrahydrofurane:H2O (1:9 v:v). The resulting slurry was stirred at room temperature for 4 days, after which the remaining solids were isolated and subjected to XRPD.
# A solution of crystalline polymorph Form 1 (20 mg in 0.3 mL) was mixed with 0.3 mL a solution of KOH in ethyl acetate (1:1 molar ratio of KOH:Form 1), and then stirred for 2 to 5 days at room temperature. The solids were isolated and subjected to XRPD. The wet solids were also vacuum-dried at 50° C. for 2 hours, and then subjected to XRPD. […] This crystalline polymorph was also characterized by TGA, DSC, and PLM. […] Based on the results, Form 9 was considered to be a hydrate or a solvate.
# X-Ray Powder Diffraction was obtained by standard techniques using Panalytical X'Pert3 Powder XRPD on a Si zero-background holder operating with a Cu Kα radiation source at 45 kV, 40 mA (Kα1 (Å): 1.540598, Kα2 (Å): 1.544426, Kα2/Kα1 intensity ratio: 0.50). The 2θ position was calibrated against Panalytical Si reference standard disc. The scanning parameters ranged from 3 to 40° 2θ (±0.0131°) and a continuous scan at a rate of about 0.04° 2θ/minute.
# [2] = Slurry conversion (competitive) experiments for thermodynamic stability relationship; conditions: for pH of solution: 2.5 mg in 1 mL of 4% dichloromethane
# Method: To determine the thermodynamic stability relationship between Form 1 and Form 5, slurry conversion experiments were conducted. Specifically, Form 1 sample was added to 1.0 mL H2O:acetone (9:1 v:v) or 0.8 mL of H2O:ethanol (3:1 v:v) at room temperature. After equilibrium for 1 hr, the suspensions were filtered to obtain a saturated solution Form 1. To each saturated solution of Form 1:Form 5 (1:1) was added. After stirring at room temperature for 2 or 3 days, the solids were isolated for XRPD analysis.
# To determine the thermodynamic stability relationship between Form 11 and Form 12, slurry conversion experiments were conducted. Specifically, Form 12 (2.5 mg) was added to 1.0 mL of 4% dichloromethane at room temperature. After equilibrium for 1 hour, the suspensions were filtered to obtain a saturated solution Form 12. To the saturated solution of Form 11:Form 12 (1:1) was added. After stirring at room temperature for 30 minutes, the solids were isolated for XRPD analysis. […] The pH of Form 11 solution (2.5 mg in 1 mL of 4% dichloromethane) and Form 12 solution (2.5 mg in 1 mL of 4% dichloromethane) was measured to be 8.25 and 7.98, respectively.
# [3] = Solubility of crystalline polymorph in biologically relevant media (water, SGF, FaSSIF, FeSSIF), HPLC of supernatant, pH, XRPD of remaining solids; conditions: for solubility at 1 h / solubility at 4 h / solubility at 24 h: thermodynamic from solid, 37° C.; for pH: solubility test
# Method: The solubility of crystalline polymorph Form 1 was tested in biologically relevant media: water, simulated gastric fluid (SGF), fasted state simulated intestinal fluid (FaSSIF) and fed state simulated intestinal fluid (FeSSIF). For example, the crystalline polymorph was suspended in the solvent with stirring at 400 rpm at 37° C. for 1 h, 4 h and 24 h followed by filtration. The supernatant concentration was measured by HPLC (Mobile phase A: 0.1% NH3 in H2O, Mobile phase B: acetonitrile; flow rate: 0.8 mL/min; injection volume: 5 μL). The remaining solids were tested by XRPD.
# The solubility of crystalline polymorph Form 11 was tested in biologically relevant media: water, SGF, FaSSIF, and FeSSIF. For example, the crystalline polymorph was suspended in the solvent with stirring at 400 rpm at 37° C. for 1 h, 4 h and 24 h followed by filtration. The supernatant was measured by HPLC for concentration and the remaining solids were tested by XRPD.
compound,measurement,setting,value
"Cc1nn(-c2nc(C3=CCC(C(F)(F)F)CC3)c(SC(C)C)s2)c(C(=O)[O-])c1-c1cccc(F)c1.[Na+] (centres unmarked) [Form 12, sodium 4-(3-fluorophenyl)-1-(5-(isopropylthio)-4-(4-(trifluoromethyl)cyclohex-1-en-1-yl)thiazol-2-yl)-3-methyl-1H-pyrazole-5-carboxylate]",change to the polymorph during drying (XRPD),[1],no change to the polymorph was observed
same,pH of solution,[2],7.98
"Cc1nn(-c2nc(C3=CCC(C(F)(F)F)CC3)c(SC(C)C)s2)c(C(=O)[O-])c1-c1cccc(F)c1.[K+] (centres unmarked) [Form 10, potassium 4-(3-fluorophenyl)-1-(5-(isopropylthio)-4-(4-(trifluoromethyl)cyclohex-1-en-1-yl)thiazol-2-yl)-3-methyl-1H-pyrazole-5-carboxylate]",change to the polymorph during drying (XRPD),[1],no change to the polymorph was observed
"Cc1nn(-c2nc(C3=CCC(C(F)(F)F)CC3)c(SC(C)C)s2)c(C(=O)[O-])c1-c1cccc(F)c1.[K+] (centres unmarked) [Form 9, potassium 4-(3-fluorophenyl)-1-(5-(isopropylthio)-4-(4-(trifluoromethyl)cyclohex-1-en-1-yl)thiazol-2-yl)-3-methyl-1H-pyrazole-5-carboxylate]",change to the polymorph during drying (XRPD),[1],no change to the polymorph was observed
"Cc1nn(-c2nc(C3=CCC(C(F)(F)F)CC3)c(SC(C)C)s2)c(C(=O)O)c1-c1cccc(F)c1.O=C(O)C1CCCN1 [Form 16, L-proline 4-(3-fluorophenyl)-1-(5-(isopropylthio)-4-(4-(trifluoromethyl)cyclohex-1-en-1-yl)thiazol-2-yl)-3-methyl-1H-pyrazole-5-carboxylate]",change to the polymorph during drying (XRPD),[1],no change to the polymorph was observed
"Cc1nn(-c2nc(C3=CCC(C(F)(F)F)CC3)c(SC(C)C)s2)c(C(=O)O)c1-c1cccc(F)c1 (centres unmarked) [Form 8, 4-(3-fluorophenyl)-1-(5-(isopropylthio)-4-(4-(trifluoromethyl)cyclohex-1-en-1-yl)thiazol-2-yl)-3-methyl-1H-pyrazole-5-carboxylic acid]",form stability upon drying under ambient condition (XRPD),[1],metastable and partially converted to Form 1
magnesium 4-(3-fluorophenyl)-1-(5-(isopropylthio)-4-(4-(trifluoromethyl)cyclohex-1-en-1-yl)thiazol-2-yl)-3-methyl-1H-pyrazole-5-carboxylate [Form 14],change to the polymorph during drying (XRPD),[1],no change to the polymorph was observed
"Cc1nn(-c2nc(C3=CCC(C(F)(F)F)CC3)c(SC(C)C)s2)c(C(=O)O)c1-c1cccc(F)c1.NC(N)=O (centres unmarked) [Form 15, urea 4-(3-fluorophenyl)-1-(5-(isopropylthio)-4-(4-(trifluoromethyl)cyclohex-1-en-1-yl)thiazol-2-yl)-3-methyl-1H-pyrazole-5-carboxylate]",change to the polymorph during drying (XRPD),[1],no change to the polymorph was observed
"Cc1nn(-c2nc(C3=CCC(C(F)(F)F)CC3)c(SC(C)C)s2)c(C(=O)O)c1-c1cccc(F)c1 (centres unmarked) [Form 2, 4-(3-fluorophenyl)-1-(5-(isopropylthio)-4-(4-(trifluoromethyl)cyclohex-1-en-1-yl)thiazol-2-yl)-3-methyl-1H-pyrazole-5-carboxylic acid]",form stability upon drying under ambient condition (XRPD),[1],metastable and partially converted to Form 1
"Cc1nn(-c2nc(C3=CCC(C(F)(F)F)CC3)c(SC(C)C)s2)c(C(=O)[O-])c1-c1cccc(F)c1.[Na+] (centres unmarked) [Form 11, sodium 4-(3-fluorophenyl)-1-(5-(isopropylthio)-4-(4-(trifluoromethyl)cyclohex-1-en-1-yl)thiazol-2-yl)-3-methyl-1H-pyrazole-5-carboxylate]",change to the polymorph during drying (XRPD),[1],no change to the polymorph was observed
same,Form change by XRPD of remaining solids,[3]; after solubility test in FaSSIF,no form change was observed
same,Form change by XRPD of remaining solids,[3]; after solubility test in FeSSIF,converted to Form 1
same,Form change by XRPD of remaining solids,[3]; after solubility test in SGF,converted to Form 1
same,Form change by XRPD of remaining solids,[3]; after solubility test in water,no form change was observed
same,solubility at 1 h,"[3]; fasted state simulated intestinal fluid (FaSSIF), FaSSIF, 1 hr",100 µg/mL
same,solubility at 4 h,"[3]; fasted state simulated intestinal fluid (FaSSIF), FaSSIF, 4 hr",100 µg/mL
same,solubility at 24 h,"[3]; fasted state simulated intestinal fluid (FaSSIF), FaSSIF, 24 hr",200 µg/mL
same,solubility at 1 h,"[3]; fed state simulated intestinal fluid (FeSSIF), FeSSIF, 1 hr",200 µg/mL
same,solubility at 4 h,"[3]; fed state simulated intestinal fluid (FeSSIF), FeSSIF, 4 hr",300 µg/mL
same,solubility at 24 h,"[3]; fed state simulated intestinal fluid (FeSSIF), FeSSIF, 24 hr",400 µg/mL
same,solubility at 1 h,"[3]; simulated gastric fluid (SGF), simulated gastric fluid, SGF, 1 hr",40 µg/mL
same,solubility at 4 h,"[3]; simulated gastric fluid (SGF), simulated gastric fluid, SGF, 4 hr",100 µg/mL
same,solubility at 24 h,"[3]; simulated gastric fluid (SGF), simulated gastric fluid, SGF, 24 hr",300 µg/mL
same,pH,"[3]; FaSSIF, 1 hr",6.48
same,pH,"[3]; FaSSIF, 4 hr",6.45
same,pH,"[3]; FaSSIF, 24 hr",6.56
same,pH,"[3]; FeSSIF, 1 hr",5.19
same,pH,"[3]; FeSSIF, 4 hr",5.28
same,pH,"[3]; FeSSIF, 24 hr",5.32
same,pH,"[3]; H2O, 1 hr",9.67
same,pH,"[3]; H2O, 4 hr",9.31
same,pH,"[3]; H2O, 24 hr",9.17
same,pH,"[3]; SGF, 1 hr",2.12
same,pH,"[3]; SGF, 4 hr",2.55
same,pH,"[3]; SGF, 24 hr",6.81
same,solubility at 1 h,"[3]; water, H2O, 1 hr",1400 µg/mL
same,solubility at 4 h,"[3]; water, H2O, 4 hr",1300 µg/mL
same,solubility at 24 h,"[3]; water, H2O, 24 hr",1200 µg/mL
same,pH of solution,[2],8.25
same,thermodynamic stability relationship between Form 11 and Form 12,"[2]; slurry of Form 11:Form 12 (1:1) in 4% dichloromethane, room temperature, 30 minutes",more thermodynamically stable than Form 12
"Cc1nn(-c2nc(C3=CCC(C(F)(F)F)CC3)c(SC(C)C)s2)c(C(=O)O)c1-c1cccc(F)c1.N=C(N)NCCCC(N)C(=O)O [Form 13, L-arginine 4-(3-fluorophenyl)-1-(5-(isopropylthio)-4-(4-(trifluoromethyl)cyclohex-1-en-1-yl)thiazol-2-yl)-3-methyl-1H-pyrazole-5-carboxylate]",change to the polymorph during drying (XRPD),[1],no change to the polymorph was observed
